Assay results: PubChem BioAssay AID248 (DTP/NCI, 2004)
Values joined by “and” are separate entries in the source; they are usually repeats but may differ in a detail not shown here. Equal entries are not always repeated. Toxic doses and inconclusive results are not listed. Rule as the data show it: active = T/C of 150% or more; inactive = T/C below 125%.

Tested on: L1210 leukemia ip in BDF1 mice, survival T/C
Assay: NCI In Vivo Anticancer Drug Screen. Data for tumor model L1210 Leukemia (intraperitoneal) in B6D2F1 (BDF1) mice
Details: endpoint: mean survival time, higher = longer survival
Summary of the method: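 Ratio derived from survival: compound-dosed mice over vehicle-dosed mice, all bearing a transplantable tumor.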

[1] = dose: 100.0 mg/kg/injection, schedule: Q01DX001 (ip), vehicle: Klucel (hydroxypropylcellulose) (HPC)
[2] = dose: 200.0 mg/kg/injection, schedule: Q01DX001 (ip), vehicle: Klucel (hydroxypropylcellulose) (HPC)
[3] = dose: 400.0 mg/kg/injection, schedule: Q01DX001 (ip), vehicle: Klucel (hydroxypropylcellulose) (HPC)
[4] = dose: 50.0 mg/kg/injection, schedule: Q01DX009 (ip), vehicle: saline with Tween-80
[5] = dose: 100.0 mg/kg/injection, schedule: Q04DX003 (ip), vehicle: saline with Tween-80
[6] = dose: 100.0 mg/kg/injection, schedule: Q01DX001 (ip), vehicle: saline
[7] = dose: 200.0 mg/kg/injection, schedule: Q01DX001 (ip), vehicle: saline
[8] = dose: 400.0 mg/kg/injection, schedule: Q01DX001 (ip), vehicle: saline
[9] = dose: 200.0 mg/kg/injection, schedule: Q04DX003 (ip), vehicle: saline with Tween-80
[10] = dose: 400.0 mg/kg/injection, schedule: Q04DX003 (ip), vehicle: saline with Tween-80
[11] = dose: 50.0 mg/kg/injection, schedule: Q01DX009 (ip), vehicle: saline
[12] = dose: 25.0 mg/kg/injection, schedule: Q04DX003 (ip), vehicle: saline with Tween-80
[13] = dose: 100.0 mg/kg/injection, schedule: Q04DX003 (ip), vehicle: Klucel (hydroxypropylcellulose) (HPC)
[14] = dose: 100.0 mg/kg/injection, schedule: Q04DX002 (ip), vehicle: saline with Tween-80
[15] = dose: 200.0 mg/kg/injection, schedule: Q04DX002 (ip), vehicle: saline with Tween-80
[16] = dose: 400.0 mg/kg/injection, schedule: Q04DX002 (ip), vehicle: saline with Tween-80
[17] = dose: 200.0 mg/kg/injection, schedule: Q04DX003 (ip), vehicle: Klucel (hydroxypropylcellulose) (HPC)
[18] = dose: 100.0 mg/kg/injection, schedule: Q01DX009 (ip), vehicle: saline with Tween-80
[19] = dose: 200.0 mg/kg/injection, schedule: Q01DX009 (ip), vehicle: saline with Tween-80
[20] = dose: 400.0 mg/kg/injection, schedule: Q04DX003 (ip), vehicle: Klucel (hydroxypropylcellulose) (HPC)

Measured: T/C

COC(=O)Nc1ccccc1[N+](=O)[O-]
inactive: dose: 100.0 mg/kg/injection, schedule: Q04DX003 (ip), vehicle: other 103 % of control | dose: 200.0 mg/kg/injection, schedule: Q04DX003 (ip), vehicle: other 101 % of control | dose: 400.0 mg/kg/injection, schedule: Q04DX003 (ip), vehicle: other 111 % of control

N#Cc1nc(/C=C\c2ccc3c(c2)OCO3)cnc1N
inactive: [1] 106 % of control | [2] 95 % of control | [3] 89 % of control

c1ccc2c(c1)Cc1ccccc1CN(CCNC1=NCCN1)C2
inactive: dose: 25.0 mg/kg/injection, schedule: Q01DX009 (ip), vehicle: saline with Tween-80 91 % of control | [4] 102 % of control | [5] 98 % of control

Cc1cnc(C)c(OCCN2CC2)n1
inactive: [6] 93 % of control

Cc1ccc(C)c(NS(C)(=O)=O)c1
inactive: dose: 50.0 mg/kg/injection, schedule: Q01DX001 (ip), vehicle: saline 96 % of control | [6] 91 % of control | [7] 102 % of control | [8] 102 % of control

CNC(=O)O/N=C/c1cccc(/C=N/OC(=O)NC)c1
inactive: [5] 97 % of control | [9] 97 % of control | [10] 103 % of control

COc1ccc(C=NC2C(OC(C)=O)OC(COS(=O)(=O)c3ccc(C)cc3)C(OC(C)=O)C2OC(C)=O)cc1 (stereo not given)
inactive: [5] 101 % of control | [9] 101 % of control | [10] 93 % of control

C=C1C(=O)OC2C1CCC(C)C1C=CC(=O)C12C (stereo not given)
inactive: [11] 98 % of control | dose: 100.0 mg/kg/injection, schedule: Q01DX009 (ip), vehicle: saline 96 % of control | dose: 200.0 mg/kg/injection, schedule: Q01DX009 (ip), vehicle: saline 98 % of control

CCOC(=O)CCC(NC(=O)c1cnc(N)s1)C(=O)OCC (stereo not given)
inactive: dose: 44.0 mg/kg/injection, schedule: Q01DX001 (ip), vehicle: saline with Tween-80 97 % of control | dose: 66.0 mg/kg/injection, schedule: Q01DX001 (ip), vehicle: saline with Tween-80 97 % of control | dose: 100.0 mg/kg/injection, schedule: Q01DX001 (ip), vehicle: saline with Tween-80 97 % of control | dose: 150.0 mg/kg/injection, schedule: Q01DX001 (ip), vehicle: saline with Tween-80 101 % of control | dose: 200.0 mg/kg/injection, schedule: Q01DX001 (ip), vehicle: saline with Tween-80 93 % of control | dose: 400.0 mg/kg/injection, schedule: Q01DX001 (ip), vehicle: saline with Tween-80 102 % of control

O=C1C=CC(=O)N1c1ccc(Br)cc1Cl
inactive: dose: 0.78 mg/kg/injection, schedule: Q04DX003 (ip), vehicle: saline 91 % of control | dose: 1.0 mg/kg/injection, schedule: Q01DX009 (ip), vehicle: saline 101 % of control | dose: 1.56 mg/kg/injection, schedule: Q04DX003 (ip), vehicle: saline 93 % of control | dose: 2.0 mg/kg/injection, schedule: Q01DX009 (ip), vehicle: saline 110 % of control | dose: 3.13 mg/kg/injection, schedule: Q04DX003 (ip), vehicle: saline 106 % of control | dose: 4.0 mg/kg/injection, schedule: Q01DX009 (ip), vehicle: saline 89 % of control | [12] 100 % of control | [13] 93 % of control

CCCCOC(=O)c1ccc(OC(=O)Nc2ccc(C)cc2[N+](=O)[O-])cc1
inactive: dose: 50.0 mg/kg/injection, schedule: Q01DX009 (ip), vehicle: saline + alcohol 97 % of control | dose: 100.0 mg/kg/injection, schedule: Q01DX009 (ip), vehicle: saline + alcohol 123 % of control | dose: 200.0 mg/kg/injection, schedule: Q01DX009 (ip), vehicle: saline + alcohol 103 % of control

CC(C)OC(=O)Cc1cccc2ccccc12
inactive: dose: 222.0 mg/kg/injection, schedule: Q01DX Z (ip), vehicle: saline 98 % of control | dose: 333.0 mg/kg/injection, schedule: Q01DX Z (ip), vehicle: saline 88 % of control | dose: 500.0 mg/kg/injection, schedule: Q01DX Z (ip), vehicle: saline 95 % of control

NC1CCC(CC(=O)O)CC1 (stereo not given)
inactive: [6] 105 % of control | [7] 89 % of control | [8] 96 % of control

CN1C(=O)N(C)P1(Cl)(Cl)Cl
inactive: [14] 103 % of control | [15] 95 % of control | [16] 92 % of control

NC(=O)c1ccc[n+](CC(=O)Nc2ccccc2)c1
inactive: [5] 101 % of control | [9] 97 % of control | [10] 95 % of control

CC(C(=O)O)C1(O)CCCCC1 (stereo not given)
inactive: dose: 5.0 mg/kg/injection, schedule: Q04DX003 (ip), vehicle: saline with Tween-80 96 % of control | dose: 10.0 mg/kg/injection, schedule: Q04DX003 (ip), vehicle: saline with Tween-80 89 % of control | dose: 20.0 mg/kg/injection, schedule: Q04DX003 (ip), vehicle: saline with Tween-80 87 % of control

CSc1nnc(-c2cccs2)s1
inactive: [13] 98 % of control

CNC(C)COc1ccccc1 (stereo not given)
inactive: dose: 25.0 mg/kg/injection, schedule: Q01DX009 (ip), vehicle: saline 101 % of control | [12] 94 % of control | [11] 98 % of control | dose: 50.0 mg/kg/injection, schedule: Q04DX003 (ip), vehicle: saline with Tween-80 91 % of control | [5] 95 % of control

O=C(Cc1ccccn1)c1ccccn1
inactive: [6] 98 % of control | dose: 100.0 mg/kg/injection, schedule: Q04DX003 (ip), vehicle: saline 100 % of control | [7] 117 % of control | dose: 200.0 mg/kg/injection, schedule: Q04DX003 (ip), vehicle: saline 102 % of control | [8] 119 % of control | dose: 400.0 mg/kg/injection, schedule: Q04DX003 (ip), vehicle: saline 98 % of control

Cc1ccc(/C=N/NC(=O)c2ccc(N=NN(C)C)cc2)cc1
inactive: dose: 50.0 mg/kg/injection, schedule: Q04DX003 (ip), vehicle: Klucel (hydroxypropylcellulose) (HPC) 95 % of control | [13] 99 % of control | [17] 100 % of control

CC1CC(=O)C(CCC#N)=C(Cl)C1 (stereo not given)
inactive: [4] 100 % of control | [18] 96 % of control | [19] 96 % of control

CC12CCC3(CCC4(C)C(=C3C1)CCC1C3(C)CCC(OC5OC(CO)C(O)C(O)C5O)C(C)(C)C3CCC14C)C(=O)O2 (stereo not given)
inactive: [4] 104 % of control | [18] 108 % of control | [19] 114 % of control

CC(C)=CCC(=O)NC(=O)NS(=O)(=O)c1ccc(Cl)cc1
active: [17] 177 % of control
inactive: [13] 100 % of control | [20] 94 % of control

CC(c1ccccc1)C(C(=O)O)C(=O)O (stereo not given)
inactive: dose: 50.0 mg/kg/injection, schedule: Q01DX001 (ip), vehicle: carboxymethylcellulose (CMC) 100 % of control | dose: 100.0 mg/kg/injection, schedule: Q01DX001 (ip), vehicle: carboxymethylcellulose (CMC) 96 % of control | dose: 200.0 mg/kg/injection, schedule: Q01DX001 (ip), vehicle: carboxymethylcellulose (CMC) 96 % of control | dose: 400.0 mg/kg/injection, schedule: Q01DX001 (ip), vehicle: carboxymethylcellulose (CMC) 97 % of control

Cc1ccc(S(=O)(=O)OC2CC(C(=O)O)N(S(=O)(=O)c3ccc(C)cc3)C2)cc1 (stereo not given)
inactive: [18] 104 % of control | [5] 98 % of control and 92 % of control | [19] 95 % of control | [9] 97 % of control and 101 % of control | [10] 96 % of control and 107 % of control

CC(=O)C(=Cc1ccccc1Cl)C(C)=O
inactive: [1] 104 % of control | [13] 94 % of control | [2] 98 % of control | [17] 91 % of control | [3] 90 % of control | [20] 100 % of control

CC1C(C(=O)c2ccc(-c3ccccc3)cc2)N1C(C)(C)C (stereo not given)
inactive: [1] 87 % of control | [2] 93 % of control | [3] 94 % of control

CN(C)S(=O)(=O)c1ccc(N=NN2CCOCC2)cc1
inactive: [14] 115 % of control | [15] 97 % of control | [16] 108 % of control
